Test results: BigSolDB 2.1

OCC1(O)OC[C@@H](O)[C@@H](O)[C@H]1O (some centres undefined)
solubility (mole fraction)
Settings	283.15 K	288.15 K	293.15 K	298.15 K	303.15 K	308.15 K	313.15 K	318.15 K	323.15 K
in 2-butanone	0.000516	0.000587	0.000946	0.00144	0.00198	0.00264	0.0033	0.00464	0.00552
in acetone	0.000606	0.000752	0.00104	0.00158	0.00219	0.00299	0.00376	0.0049	–
in acetonitrile	0.000226	0.000283	0.000367	0.00047	0.000627	0.000861	0.00109	0.00139	0.00176
in ethanol	0.00369	0.00446	0.00588	0.00746	0.00899	0.0116	0.0147	0.018	0.0222
in ethyl acetate	0.00077	0.000993	0.00128	0.00173	0.00217	0.00257	0.00327	0.00379	0.00449
in ethyl formate	0.000243	0.000356	0.000493	0.000697	0.00109	0.00151	0.00193	0.00275	0.00346
in isopropanol	0.00147	0.00193	0.00254	0.00368	0.00507	0.00673	0.00893	0.0112	0.0143
in methanol	0.0162	0.0178	0.0212	0.0273	0.0356	0.0512	0.0705	0.0895	0.116
in methyl acetate	0.000227	0.000298	0.000389	0.000619	0.000851	0.00105	0.00139	0.00187	0.00231
in n-butanol	0.00111	0.00125	0.0018	0.0024	0.00329	0.00456	0.00579	0.00747	0.00952
in n-butyl acetate	0.000243	0.000359	0.000443	0.000593	0.000796	0.001	0.00131	0.00165	0.002
in n-hexanol	0.000659	0.000835	0.000961	0.00143	0.00216	0.00301	0.004	0.00509	0.00652
in n-pentanol	0.00133	0.00134	0.0017	0.00202	0.00269	0.00356	0.00448	0.00561	0.00721
in n-propanol	0.0015	0.00191	0.00234	0.00335	0.00446	0.00567	0.00751	0.00956	0.0121
in sec-butanol	0.001	0.00178	0.00238	0.00324	0.0045	0.00617	0.0079	0.0105	0.0135
